Results from patent publication US11846639B2, “Ligand discovery for T cell receptors” (priority 2014, dated 2023).
pEC50, pKd: −log10 of the molar value. Residues, ends and D or L forms follow the SMILES beside them.

How the values were obtained:
5cc7 TCR = assay: Surface plasmon resonance affinity of peptide-I-Ek for 5cc7 TCR; type: binding, murine; settings: SPR, peptide exchanged into soluble I-Ek
From the text: Refolded Murine TCRs for crystallography and affinity measurements. Refolded 2B4, 226, and 5cc7 were created essentially as described. For […] and 5c2 crystal structures, the 5c1 and 5c2 peptides were fused to the N-terminus of 5cc7β via a 10-amino acid GlySer linker. TCRs were purified via size exclusion chromatography and assayed via SDS-PAGE to ensure 1:1 α:β stoichiometry. If there were an excess of TCRβ, ββ homodimer was purified away from αβ heterodimer via ion exchange chromatography on a MonoQ column (GE Healthcare) using a 20 mM Tris pH 8/20 mM Tris pH8+ 500 mM NaCl buffer system. Proteins were then reexchanged into HBS for further use.
Surface plasmon resonance. Affinity measurements for peptides bound to I-Ek for 226, 2B4, and 5cc7 TCRs were determined via surface plasmon resonance on a Biacore T100 (GE Healthcare). 10 μM of peptide of interest was added to biotinylated Clip-I-Ek. 1 U thrombin/100 μg MHC was added and incubated at 37°. After 1 hour, pH was lowered by adding sodium cacodylate pH 6.2 to 30 mM and sample was incubated at 37° overnight. Samples were then neutralized with 40 mM HEPES pH 7.2 and stored at 4° until use. pMHC exchanged with the peptide of interest were bound to a Biacore SA chip (GE Healthcare) at a low surface density (100-200 RU) to ensure no recapture of analyte. I-Ek exchanged with a null peptide (MCC K99E) was used as the reference surface. […]

5cc7 T cell blasts = type: cell-based, mice; settings: 5cc7 T cells; peptide presented by I-Ek; read-out: signaling potency (EC50)
Experimental: Selection of library derived I-Ek peptides for further characterization. Peptides were chosen from the deep sequencing data across a wide range of sequence prevalence for further study via SPR, activity, and structural characterization. Peptides were chosen that were recognized by 1, 2, or all 3 I-E^k reactive TCRs. All peptides were tested for activity with both 2B4 and 5cc7 T cell clones regardless of for which TCR they were initially selected. A subset of peptides was chosen to further characterize via SPR. The 2A peptide that was structurally characterized in FIG. 5A was discovered by manual curation of an I-Ek peptide library. 2A is highly homologous to peptides represented in the deep sequencing data and co-clusters with MCC.
Activity assay for I-Ek-selected peptides. Lymphocytes were isolated from 5cc7 or 2B4 TCR transgenic Rag−/− mice. […] CD69 upregulation was measured using an Accuri C6 flow cytometer with an autosampler (BD) by measuring CD69 MFI in the CD4+ gate. Data was then normalized and EC50s measured via Prism. IL-2 release was measured in technical triplicates via anti-IL-2 Elisa (Ready-setgo mouse IL-2 ELISA kit, eBioscience 88-7024), as recommended by the manufacturer. […] Absorbance was measured via SpectraMax Paradigm (Molecular Devices), with EC50 determined via Graphpad Prism.

Row | SMILES | pKd (5cc7 TCR) | pEC50 (5cc7 T cell blasts)
1 | CC[C@H](C)[C@H](NC(=O)[C@H](CC(C)C)NC(=O)[C@H](CC(=O)O)NC(=O)[C@H](C)N)C(=O)N[C@@H](C)C(=O)N[C@@H](Cc1ccc(O)cc1)C(=O)N[C@@H](CC(C)C)C(=O)N[C@@H](CCCCN)C(=O)N[C@@H](CCC(N)=O)C(=O)N[C@@H](C)C(=O)N[C@H](C(=O)N[C@@H](CCCCN)C(=O)O)[C@@H](C)O [MCC, reference compound] (H-ADLIAYLKQATK-OH; N-terminus and C-terminus assumed) | 4.39 | 
2 | CC(C)C[C@H](NC(=O)[C@H](Cc1ccccc1)NC(=O)[C@H](Cc1ccccc1)NC(=O)[C@H](C)NC(=O)[C@@H](NC(=O)CNC(=O)[C@H](CC(N)=O)NC(=O)[C@H](C)N)C(C)C)C(=O)N[C@H](C(=O)N1CCC[C@H]1C(=O)N[C@@H](Cc1ccccc1)C(=O)N[C@@H](CCCCN)C(=O)O)[C@@H](C)O [compound 50] (H-ANGVAFFLTPFK-OH; N-terminus and C-terminus assumed) | 3.94 | 5.82
